Data from ChEMBL document CHEMBL1201862, “PubChem BioAssay data set” (2004).
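Method: 48-hour compound exposure of cells in 96-well plates, five concentrations, linear interpolation of endpoints. GI50 is the concentration that inhibits growth by half.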 Calls of active or inactive are those of the source. Cut-off read from the data, not from the text of the source: active = GI50 up to about 1.1 µM and inactive = higher.

Tests used:
Experiment in all cases: NCI-60 cell line screen, 48 h
RXF 393 = system: RXF 393
SF-268 = system: SF-268
MDA-MB-435 = system: MDA-MB-435
Hs-578T = system: Hs-578T
HCT-15 = system: HCT-15
A498 = system: A498
PC-3 = system: PC-3
SK-MEL-2 = system: SK-MEL-2
NCI-H522 = system: NCI-H522
OVCAR-4 = system: OVCAR-4
T47D = system: T47D
HT-29 = system: HT-29
UACC-62 = system: UACC-62
U-251 = system: U-251
COLO 205 = system: COLO 205
CAKI-1 = system: CAKI-1
UACC-257 = system: UACC-257
BT-549 = system: BT-549
SF-539 = system: SF-539
HL-60 = system: HL-60

Compound	GI50 (RXF 393)	GI50 (SF-268)	GI50 (MDA-MB-435)	GI50 (Hs-578T)	GI50 (HCT-15) [µM]	GI50 (A498)	GI50 (PC-3)	GI50 (SK-MEL-2)	GI50 (NCI-H522)	GI50 (OVCAR-4)	GI50 (T47D)	GI50 (HT-29)	GI50 (UACC-62)	GI50 (U-251)	GI50 (COLO 205)	GI50 (CAKI-1)	GI50 (UACC-257)	GI50 (BT-549)	GI50 (SF-539)	GI50 (HL-60)
COc1cccc2nc3c(C(=O)NCCN(C)C)cccc3cc12	3.94 µM (inactive)	3.24 µM (inactive)	2.69 µM (inactive)	1.82 µM (inactive)	1.91	0.307 µM (active)	2.34 µM (inactive)	4.13 µM (inactive)	1.26 µM (inactive)	1.67 µM (inactive)	3.65 µM (inactive)	1.21 µM (inactive)	2.23 µM (inactive)	1.44 µM (inactive)	1.13 µM (inactive)	0.619 µM (active)	1.92 µM (inactive)	2.57 µM (inactive)	1.85 µM (inactive)	
NC(=O)c1ccc(C(=O)Nc2ccc([As](=O)(O)O)cc2)cc1	> 100 µM (inactive)	> 100 µM (inactive)	> 100 µM (inactive)	> 100 µM (inactive)	> 100	> 100 µM (inactive)	> 100 µM (inactive)	> 100 µM (inactive)	> 100 µM (inactive)	> 100 µM (inactive)	> 100 µM (inactive)	> 100 µM (inactive)	> 100 µM (inactive)	> 100 µM (inactive)	> 100 µM (inactive)	> 100 µM (inactive)		> 100 µM (inactive)		> 100 µM (inactive)
COC1(c2ccccc2)N=C(S)NN=C1c1ccccc1 (stereo unspecified)	63.4 µM (inactive)	37.2 µM (inactive)	19.5 µM (inactive)	42.4 µM (inactive)	24.3	> 100 µM (inactive)	31.4 µM (inactive)	27.9 µM (inactive)	24.9 µM (inactive)		33.5 µM (inactive)	44.2 µM (inactive)	51.4 µM (inactive)	21.2 µM (inactive)	21.9 µM (inactive)	73.8 µM (inactive)	49.1 µM (inactive)	28.2 µM (inactive)		21 µM (inactive)
COc1ccc2c(c1)CCc1c-2n(CCN2CCCCC2)c2ccc(OC)cc12		> 100 µM (inactive)	> 100 µM (inactive)	> 100 µM (inactive)	> 100	> 100 µM (inactive)	> 100 µM (inactive)	> 100 µM (inactive)	61.5 µM (inactive)	> 100 µM (inactive)	> 100 µM (inactive)	9.12 µM (inactive)	> 100 µM (inactive)	> 100 µM (inactive)	> 100 µM (inactive)	> 100 µM (inactive)	> 100 µM (inactive)	> 100 µM (inactive)		
Cc1nc2ccccc2c(=O)n1NC(=O)Cc1ccccc1	> 100 µM (inactive)	> 100 µM (inactive)	> 100 µM (inactive)	> 100 µM (inactive)		> 100 µM (inactive)	> 100 µM (inactive)		> 100 µM (inactive)	> 100 µM (inactive)	> 100 µM (inactive)	> 100 µM (inactive)	43.5 µM (inactive)	> 100 µM (inactive)	> 100 µM (inactive)		> 100 µM (inactive)	> 100 µM (inactive)	> 100 µM (inactive)	> 100 µM (inactive)
Cc1cc(C)nc(NS(=O)(=O)c2ccc(NC(=O)c3ccc4nc5ccccc5c(Nc5ccc(S(N)(=O)=O)cc5)c4c3)cc2)n1	33 µM (inactive)	> 100 µM (inactive)	> 100 µM (inactive)	91.2 µM (inactive)	> 100		> 100 µM (inactive)	42.9 µM (inactive)	34.2 µM (inactive)	83.8 µM (inactive)	> 100 µM (inactive)	75.3 µM (inactive)	> 100 µM (inactive)	59 µM (inactive)	> 100 µM (inactive)	> 100 µM (inactive)	> 100 µM (inactive)	28.2 µM (inactive)	> 100 µM (inactive)	57.9 µM (inactive)
Cc1ccc2c(c1)-c1nc(N)c(C#N)c(-c3ccc(Cl)cc3)c1CCS2(=O)=O		67.6 µM (inactive)	31.3 µM (inactive)	43 µM (inactive)	43.2	24.6 µM (inactive)	26.8 µM (inactive)	22.5 µM (inactive)	29.8 µM (inactive)	52 µM (inactive)	33.2 µM (inactive)	21.4 µM (inactive)	28.2 µM (inactive)	40 µM (inactive)	24.7 µM (inactive)	38.5 µM (inactive)	45.6 µM (inactive)	49 µM (inactive)		17.7 µM (inactive)
C(=N\c1ccc(-c2nc3ccccc3s2)cc1)/c1ccco1	55.7 µM (inactive)	48.2 µM (inactive)	64.3 µM (inactive)	> 100 µM (inactive)	51.2	27 µM (inactive)	32.5 µM (inactive)	60.3 µM (inactive)	44.5 µM (inactive)	59.6 µM (inactive)	41.6 µM (inactive)	70 µM (inactive)	54.2 µM (inactive)	47.6 µM (inactive)	87.3 µM (inactive)	49.1 µM (inactive)	43.8 µM (inactive)	83.4 µM (inactive)	> 100 µM (inactive)	
CCOC(=O)C(NCc1cccc(C(F)(F)F)c1)(NC(=O)c1ccccc1)C(F)(F)F (stereo unspecified)	9.08 µM (inactive)	47.9 µM (inactive)	24.3 µM (inactive)	47.1 µM (inactive)	23.1		30.5 µM (inactive)	21.4 µM (inactive)	17.6 µM (inactive)	21.6 µM (inactive)	22.2 µM (inactive)	19.6 µM (inactive)	13.9 µM (inactive)	34 µM (inactive)	16.4 µM (inactive)	14.4 µM (inactive)	18 µM (inactive)	20.5 µM (inactive)	24.2 µM (inactive)	86.9 µM (inactive)
S=C1c2cc(Cl)ccc2N=C(NC2CCCC2)C2CSCN12 (stereo unspecified)	> 69.7 µM (inactive)	> 100 µM (inactive)	> 91.8 µM (inactive)	> 96.6 µM (inactive)	> 100	> 100 µM (inactive)	> 55.6 µM (inactive)	> 76.6 µM (inactive)	> 100 µM (inactive)	> 100 µM (inactive)	> 55 µM (inactive)	> 100 µM (inactive)	> 92.9 µM (inactive)	> 100 µM (inactive)	> 100 µM (inactive)	> 100 µM (inactive)	> 91.6 µM (inactive)	> 100 µM (inactive)	89.9 µM (inactive)	
C=C1CC(COc2ccc3c(C)cc(=O)oc3c2)(c2ccccc2)OC1=O (stereo unspecified)		5.33 µM (inactive)	2.43 µM (inactive)	6.82 µM (inactive)	1.74	2.64 µM (inactive)	2.2 µM (inactive)	1.4 µM (inactive)	1.74 µM (inactive)	2.16 µM (inactive)	2.24 µM (inactive)	1.29 µM (inactive)	1.61 µM (inactive)	10.4 µM (inactive)	1.34 µM (inactive)	1.64 µM (inactive)	1.83 µM (inactive)	1.74 µM (inactive)	2.45 µM (inactive)	0.263 µM (active)
CC(C)C12CCC3(CCC4C(C)(C(=O)O)CCCC4(C)C3C1)C(CN)C2 (stereo unspecified)	35.2 µM (inactive)	54.8 µM (inactive)	37.7 µM (inactive)	62.8 µM (inactive)	31.9	28.8 µM (inactive)	45.6 µM (inactive)	42.9 µM (inactive)	23.8 µM (inactive)	67.9 µM (inactive)	55.2 µM (inactive)	23.4 µM (inactive)	32.4 µM (inactive)	31.4 µM (inactive)	17.7 µM (inactive)	35.4 µM (inactive)	40.1 µM (inactive)	38.5 µM (inactive)	28.2 µM (inactive)	
C[C@@H]1C[C@H]2[C@@H]3CCC4=CC(=O)C=C[C@]4(C)[C@@]3(Cl)[C@@H](Cl)C[C@]2(C)[C@@]1(O)C(=O)COP(=O)(O)O	> 100 µM (inactive)	> 100 µM (inactive)	> 100 µM (inactive)	> 100 µM (inactive)	> 100	> 100 µM (inactive)	> 100 µM (inactive)	> 100 µM (inactive)	> 100 µM (inactive)	> 100 µM (inactive)	> 100 µM (inactive)	> 100 µM (inactive)	> 100 µM (inactive)	> 100 µM (inactive)	> 100 µM (inactive)	> 100 µM (inactive)	> 100 µM (inactive)	52.1 µM (inactive)		
C=C(CN1CC2C[C@](C(=O)OC)(c3cc4ccccc4[nH]3)C1C(OC)C2OC)S(=O)(=O)c1ccccc1 (stereo partly specified)	3.19 µM (inactive)	4.43 µM (inactive)	2.29 µM (inactive)	2.5 µM (inactive)	3.08		3.19 µM (inactive)	4.17 µM (inactive)	1.7 µM (inactive)	3.04 µM (inactive)	4.6 µM (inactive)	2.72 µM (inactive)	4.11 µM (inactive)	2.88 µM (inactive)	2.54 µM (inactive)	3.71 µM (inactive)	2.65 µM (inactive)	3.85 µM (inactive)	4.9 µM (inactive)	1.92 µM (inactive)
CN(C)Cc1cc(C(=O)/C=C/c2ccc([N+](=O)[O-])cc2)cc(CN(C)C)c1O	14.2 µM (inactive)	16 µM (inactive)	7.1 µM (inactive)	18.8 µM (inactive)	10.1	11 µM (inactive)	17 µM (inactive)	11.1 µM (inactive)	4.74 µM (inactive)		13.4 µM (inactive)	9.04 µM (inactive)	13.9 µM (inactive)	3.18 µM (inactive)	1.99 µM (inactive)		14.1 µM (inactive)	13.6 µM (inactive)	18.5 µM (inactive)	2.07 µM (inactive)
